Our source for the EC50 values is patent US20260209203A1, “Heterocyclic Compounds as Modulators of S1P5” (Celgene Corporation, priority 2022, published 2026).

Molecules are shown by their SMILES.

S1P5, sequence (Q9H228 whole entry, species assumed): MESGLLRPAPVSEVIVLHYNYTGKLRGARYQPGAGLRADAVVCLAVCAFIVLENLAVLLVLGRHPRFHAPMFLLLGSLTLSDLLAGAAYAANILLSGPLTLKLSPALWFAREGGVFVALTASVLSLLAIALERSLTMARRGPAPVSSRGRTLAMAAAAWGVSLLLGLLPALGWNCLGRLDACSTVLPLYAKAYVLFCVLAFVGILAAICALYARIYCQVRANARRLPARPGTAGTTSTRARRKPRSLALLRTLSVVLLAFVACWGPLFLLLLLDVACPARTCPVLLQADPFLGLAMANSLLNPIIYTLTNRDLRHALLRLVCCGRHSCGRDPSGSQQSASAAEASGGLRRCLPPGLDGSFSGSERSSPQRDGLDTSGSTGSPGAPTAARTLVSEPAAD

This test has as its target S1P5 (Homo sapiens, UniProt Q9H228). The experiment in a line: [35S]-GTPγS functional binding assay on CHO-S1P5 membranes. The settings on record: membranes of CHO cells expressing recombinant S1P5; measure of S1P5 agonism. In kind it is biochemical. As for the experimental part: CHO cells expressing recombinant S1P5 receptors were cultured in 500 cm^2 culture trays and, once confluent, rinsed and detached with cell-lifting buffer (10 mM HEPES, 154 mM NaCl, 6.85 mM EDTA, pH 7.4). Cells were then pelleted by centrifugation, resuspended, and homogenized in membrane preparation buffer (10 mM HEPES and 10 mM EDTA, pH 7.4) using a Polytron PT 1200E homogenizer (Kinematica, Luzern, Switzerland). Cellular proteins were pelleted by centrifugation at 48,000×g at 4° C. for 30 minutes. The resulting supernatant was discarded, and the pellet was re-suspended again in membrane preparation buffer, homogenized for a second time, and then centrifuged again as described above. The final cellular protein pellet was suspended in ice cold resuspension buffer (10 mM HEPES and 0.1 mM EDTA, pH 7.4), divided into aliquots, and stored at −80° C. until use.
Functional binding assays for [^35S]-GTPγS were performed in 96-well non-binding surface plates with a final volume of 200 μL. The test compounds were serially diluted in DMSO and added to assay plates using a Tecan D300E digital printer with a total volume of 0.4 μL. The control sphingosine-1-phosphate (S1P) was prepared separately by preparing a 400 μM stock solution from a 100 nmol pellet of SIP in 10 mM Na2CO3 with 2% β-cyclodextrin. The serial dilution of S1P was done using complete assay buffer (20 mM HEPES, 10 mM MgCl2, 100 mM NaCl, 1 mM EDTA, 0.1% fatty acid free bovine serum albumin (BSA), and 30 μg/mL saponin, pH 7.4) and transferred to wells already containing 0.4 μL DMSO. All the wells were then loaded to a total volume of 40 μL of complete assay buffer, except the non-specific binding (NSB) wells. For NSB wells, 40 μL/well of 50 μM GTPγS (Sigma Aldrich, cat #G8634, St. Louis, MO) was added to wells containing 0.4 μL of DMSO. The assay was started by the addition of 120 μL/well of CHO—S1P receptor membrane solution containing 40 μg/mL of membrane protein, 16.67 μM guanosine diphosphate (GDP; Sigma Aldrich, cat #G7127, St. Louis, MO), and 2.5 mg/mL of WGA PVT SPA beads in complete buffer. Assay plates were then sealed and incubated at room temperature with gentle agitation for 30 minutes. Next, 40 μL/well of 1 nM of [^35S]-GTPγS (PerkinElmer, cat #NEG030X250UC, Waltham, MA) in basic assay buffer (20 mM HEPES, 10 mM MgCl2, 100 mM NaCl, and 1 mM EDTA, pH7.4) was added to the assay plates to yield a final concentration of 200 pM and the plates were further incubated for 40 minutes at room temperature with gentle agitation. The assay was terminated by centrifugation of the plates at 1000 rpm for 3 minutes using an Eppendorf 5810R centrifuge (Eppendorf, Hamburg, Germany) and G protein bound radioactivity was quantitated using a MicroBeta2 microplate scintillation counter (PerkinElmer, Waltham, MA). As G protein bound radioactivity directly correlates to receptor activation and coupling to the G protein, this assay is a measure of S1P5 agonism.
In general terms: GTPγS is a poorly hydrolysed GTP analogue; its binding reports G protein activation.
The term EC50 denotes the concentration giving half of the maximal effect. Regarding `Cc1cc(C2CN(c3c(Cl)cccc3Cl)C2)cc(C)c1CN1CCC(C(=O)NCCN2CCCC2)CC1` [Compound 19, 1-(4-(1-(2,6-dichlorophenyl)-azetidin-3-yl)-2,6-dimethyl-benzyl)-N-(2-(pyrrolidin-1-yl)ethyl)-piperidine-4-carbox-amide], the EC50 was in the range of 1000 to 10000 nM.

In the case of `Cc1cc(C2CN(c3c(Cl)cccc3Cl)C2)cc(C)c1CN1CCC(C(=O)N(C)C(C)C)CC1` [Compound 16, 1-(4-(1-(2,6-dichlorophenyl)-azetidin-3-yl)-2,6-dimethyl-benzyl)-N-isopropyl-N-meth-yl-piperidine-4-carboxamide], the concentration for a half-maximal effect (EC50) is 1000 to 10000 nM.

Consider `Cc1cc(C2CN(c3c(Cl)cccc3Cl)C2)cc(C)c1CN1CCC(C(=O)NC2CCC2)CC1` [Compound 6, N-cyclobutyl-1-(4-(1-(2,6-dichlorophenyl)azetidin-3-yl)-2,6-dimethylbenzyl)-piperidine-4-carboxamide], for which the EC50 fell in the range of 10 to 100 nM.

For `Cc1cc(C2CN(c3c(Cl)cccc3Cl)C2)cc(C)c1CN1CCC(C(=O)NC2CCCC2)CC1` [Compound 15, N-cyclopentyl-1-(4-(1-(2,6-dichlorophenyl)-azetidin-3-yl)-2,6-dimethylbenzyl)-piperidine-4-carboxamide], the EC50 is 1000 to 10000 nM.

`Cc1cc(C2CN(c3c(Cl)cccc3Cl)C2)cc(C)c1CN1CCC(C(=O)N2CCCCC2)CC1` [Compound 26, (1-(4-(1-(2,6-dichlorophenyl)-azetidin-3-yl)-2,6-dimethyl-benzyl)-piperidin-4-yl)(piper-idin-1-yl)methanone]: the EC50 is 1000 to 10000 nM.

On to `COCCNC(=O)C1CCN(Cc2c(C)cc(C3CN(c4c(Cl)cccc4Cl)C3)cc2C)CC1` [Compound 3, 1-(4-(1-(2,6-dichlorophenyl)-azetidin-3-yl)-2,6-dimethyl-benzyl)-N-(2-methoxyethyl)-piperidine-4-carboxamide], for which the EC50 lay in the range of 1 to 10 nM.

Regarding `Cc1cc(C2CN(c3c(Cl)cccc3Cl)C2)cc(C)c1CN1CCC(C(=O)N2CCC(O)CC2)CC1` [Compound 12, (1-(4-(1-(2,6-dichlorophenyl)-azetidin-3-yl)-2,6-dimethyl-benzyl)-piperidin-4-yl)(4-hydroxy-piperidin-1-yl)-methanone], the concentration giving a half-maximal response (EC50) is 100 to 1000 nM.

Take `Cc1cc(C2CN(c3c(Cl)cccc3Cl)C2)cc(C)c1CN1CCC(C(=O)NC2CC2)CC1` [Compound 4, N-cyclopropyl-1-(4-(1-(2,6-dichlorophenyl)-azetidin-3-yl)-2,6-dimethylbenzyl)-piperidine-4-carboxamide]: the EC50 was 10 to 100 nM.

Consider `Cc1cc(C2CN(c3c(Cl)cccc3Cl)C2)cc(C)c1CN1CCC(C(=O)N2CCN(C)CC2)CC1` [Compound 8, (1-(4-(1-(2,6-dichlorophen-yl)azetidin-3-yl)-2,6-dimeth-ylbenzyl)-piperidin-4-yl)(4-methyl-piperazin-1-yl)-methanone], for which the EC50 is 100 to 1000 nM.

Consider `Cc1cc(C2CN(c3c(Cl)cccc3Cl)C2)cc(C)c1CN1CCC(C(=O)N(C)C2CC2)CC1` [Compound 25, N-cyclopropyl-1-(4-(1-(2,6-dichlorophenyl)-azetidin-3-yl)-2,6-dimethylbenzyl)-N-methylpiperidine-4-carbox-amide], for which the EC50 lay in the range of 1000 to 10000 nM.

With `Cc1cc(C2CN(c3c(Cl)cccc3Cl)C2)cc(C)c1CN1CCC(C(=O)N(C)C)CC1` [Compound 2, 1-(4-(1-(2,6-dichlorophenyl)-azetidin-3-yl)-2,6-dimethyl-benzyl)-N,N-dimethylpiper-idine-4-carboxamide], the half-maximal effective concentration (EC50) lay in the range of 1 to 10 nM.

Turning to `Cc1cc(C2CN(c3c(Cl)cccc3Cl)C2)cc(C)c1CN1CCC(C(=O)N2CCOCC2)CC1` [Compound 9, (1-(4-(1-(2,6-dichlorophen-yl)azetidin-3-yl)-2,6-dimeth-ylbenzyl)-piperidin-4-yl)-(morpholino)methanone], the EC50 lay within 100 to 1000 nM.

Consider `Cc1cc(C2CN(c3c(Cl)cccc3Cl)C2)cc(C)c1CN1CCC(C(=O)N2CCC(N(C)C)CC2)CC1` [Compound 22, (1-(4-(1-(2,6-dichlorophenyl)-azetidin-3-yl)-2,6-dimethyl-benzyl)piperidin-4-yl)(4-(dimethylamino)piperidin-1-yl)methanone], for which the EC50 is 1000 to 10000 nM.

For the compound `Cc1cc(C2CN(c3c(Cl)cccc3Cl)C2)cc(C)c1CN1CCC(C(=O)NC2CCCCC2)CC1` [Compound 17, N-cyclohexyl-1-(4-(1-(2,6-dichlorophenyl)azetidin-3-yl)-2,6-dimethylbenzyl)-piperidine-4-carboxamide], the EC50 fell in the range of 1000 to 10000 nM.

Regarding `Cc1cc(C2CN(c3c(Cl)cccc3Cl)C2)cc(C)c1CN1CCC(C(=O)NC2CCC(N(C)C)CC2)CC1` (stereo not shown) [Compound 20, 1-(4-(1-(2,6-dichlorophenyl)-azetidin-3-yl)-2,6-dimethyl-benzyl)-N-(4-(dimethyl-amino)-cyclohexyl)piper-idine-4-carboxamide], the EC50 was in the range of 1000 to 10000 nM.

Regarding `Cc1cc(C2CN(c3c(Cl)cccc3Cl)C2)cc(C)c1CN1CCC(C(=O)NCC2CC2)CC1` [Compound 5, N-(cyclopropylmethyl)-1-(4-(1-(2,6-dichlorophenyl)-azetidin-3-yl)-2,6-dimethyl-benzyl)piperidine-4-carbox-amide], the EC50 lay within 10 to 100 nM.

On to `Cc1cc(C2CN(c3c(Cl)cccc3Cl)C2)cc(C)c1CN1CCC(C(=O)NC2CCC(O)CC2)CC1` (stereo not shown) [Compound 7, 1-(4-(1-(2,6-dichlorophenyl)-azetidin-3-yl)-2,6-dimethyl-benzyl)-N-(4-hydroxycyclo-hexyl)-piperidine-4-carbox-amide], for which the EC50 lay in the range of 100 to 1000 nM.

On to `Cc1cc(C2CN(c3c(Cl)cccc3Cl)C2)cc(C)c1CN1CCC(C(=O)NCCC(C)C)CC1` [Compound 21, 1-(4-(1-(2,6-dichlorophenyl)-azetidin-3-yl)-2,6-dimethyl-benzyl)-N-isopentyl-piper-idine-4-carboxamide], for which the EC50 lay in the range of 1000 to 10000 nM.

Take `CNC(=O)C1CCN(Cc2c(C)cc(C3CN(c4c(Cl)cccc4Cl)C3)cc2C)CC1` [Compound 1, 1-(4-(1-(2,6-dichlorophenyl)-azetidin-3-yl)-2,6-dimethyl-benzyl)-N-methylpiperidine-4-carboxamide]: the EC50 lay in the range of 1 to 10 nM.

In the case of `COC1CCN(C(=O)C2CCN(Cc3c(C)cc(C4CN(c5c(Cl)cccc5Cl)C4)cc3C)CC2)CC1` [Compound 14, (1-(4-(1-(2,6-dichlorophenyl)-azetidin-3-yl)-2,6-dimethyl-benzyl)-piperidin-4-yl)(4-methoxy-piperidin-1-yl)-methanone], the EC50 was in the range of 100 to 1000 nM.

As to `Cc1cc(C2CN(c3c(Cl)cccc3Cl)C2)cc(C)c1CN1CCC(C(=O)N2CCC(O)C2)CC1` (stereo not shown) [Compound 24, (1-(4-(1-(2,6-dichlorophenyl)-azetidin-3-yl)-2,6-dimethyl-benzyl)-piperidin-4-yl)(3-hydroxypyrrolidin-1-yl)-methanone], the EC50 is 1000 to 10000 nM.

With `Cc1cc(C2CN(c3c(Cl)cccc3Cl)C2)cc(C)c1CN1CCC(C(=O)N(C)CC(C)C)CC1` [Compound 23, 1-(4-(1-(2,6-dichlorophenyl)-azetidin-3-yl)-2,6-dimethyl-benzyl)-N-isobutyl-N-meth-ylpiperidine-4-carboxamide], the EC50 lay in the range of 1000 to 10000 nM.

`Cc1cc(C2CN(c3c(Cl)cccc3Cl)C2)cc(C)c1CN1CCC(C(=O)N(C)CCO)CC1` [Compound 11, 1-(4-(1-(2,6-dichlorophenyl)-azetidin-3-yl)-2,6-dimethyl-benzyl)-N-(2-hydroxyethyl)-N-methylpiperidine-4-carbox-amide]: the EC50 lay within 100 to 1000 nM.

For the compound `Cc1cc(C2CN(c3c(Cl)cccc3Cl)C2)cc(C)c1CN1CCC(C(=O)NCC(C)C)CC1` [Compound 10, 1-(4-(1-(2,6-dichlorophenyl)-azetidin-3-yl)-2,6-dimethyl-benzyl)-N-isobutylpiperidine-4-carboxamide], the EC50 lay within 100 to 1000 nM.

For the compound `Cc1cc(C2CN(c3c(Cl)cccc3Cl)C2)cc(C)c1CN1CCC(C(=O)N(C)CCN(C)C)CC1` [Compound 13, 1-(4-(1-(2,6-dichlorophenyl)-azetidin-3-yl)-2,6-dimethyl-benzyl)-N-(2-(dimethyl-amino)ethyl)-N-methylpiper-idine-4-carboxamide], the EC50 lay in the range of 100 to 1000 nM.
